Key:
in vivo = details: po, dose létale pour 50% des animaux
From the text: La toxicité de la nitrofurantoïne est connue pour donner des résultats variables suivant les caractéristiques du produit utilisé, notamment la taille des cristaux.

[1] = 10% solution in water
Description: On refroidit à O°C une solution de 11,68 g de lysine base dans 190 ml d'eau. A cette solution limpide, on ajoute par petites portions et sous agitation 10,47 g de nitrofurantoïne. Quelques minutes après la fin de l'addition, la solution est filtrée, congelée et lyophilisée.

Solubility in water = type: physicochemical
From the text: La nitrofurantoïne ou N-(5-nitro-2-fur furylidène)-1-aminohydantoïne est un médicament, bien connu, utilisé notamment comme agent antiseptique des voies urinaires. […] Afin de pallier à cet inconvénient, différentes formes cristallines ont été développées avec peu de succès. Des sels de métaux alcalins de nitrofurantoine ont également été réalisés mais ceux-ci, bien que solubles, présentent l'inconvénient d'apporter avec eux, des ions alcalins qui sont souvent contre- indiqués, notamment lors des traitements au long cours chez les sujets soumis à un régime désodé.

[2] = aqueous solution; cited from earlier work
[3] = water, 25°C; cited from earlier work

SMILES: O=C1CN(N=Cc2ccc([N+](=O)[O-])o2)C(=O)N1 [Exemple 2]
- LD50 (in vivo; mouse): 960 mg/kg
- LD50 (in vivo; mouse, en nitrofurantoïne pure): 530 mg/kg
- LD50 (in vivo; rat): 1910 mg/kg
- LD50 (in vivo; rat, en nitrofurantoine pure): 1050 mg/kg

SMILES: O=C1CN(N=Cc2ccc([N+](=O)[O-])o2)C(=O)N1 [Exemple 1]
- pH d'une solution à 10% dans l'eau [1]: 8,9 - 9,5
- solubility (Solubility in water; 20°C, read-out: solubilité dans l'eau à 20°C): > 300 mg/mL
- solubilité dans l'eau (result in words) (Solubility in water; qualitative): instantanément soluble dans l'eau

SMILES: O=C1CN(/N=C/c2ccc([N+](=O)[O-])o2)C(=O)N1 [nitrofurantoïne, N-(5-nitro-2-furfurylidène)-1-aminohydantoïne]
- pKa en solution aqueuse [2]: ~7,2
- soluble dans l'eau [3]: 19 mg/100 ml
